Measured values reported in PubChem BioAssay (NCI).
Several values for one entry are separate records, joined by “and”; a condition that tells them apart may be missing. Equal entries are not always repeated.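 Compound exposure: 48 hours, 5 concentrations, 96-well plates. GI50: concentration for 50% inhibition of growth. The concentration for full growth arrest is given as TGI.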

How the values were obtained:
Assay in all cases: NCI anticancer screen, dose series, 48 h
DLD-1 colon = system: DLD-1 colon
MCF7 breast = system: MCF7 breast
SF-295 CNS = system: SF-295 CNS
SN12C renal = system: SN12C renal
LOX IMVI melanoma = system: LOX IMVI melanoma
SK-MEL-28 melanoma = system: SK-MEL-28 melanoma
HCT-15 colon = system: HCT-15 colon
SR leukemia = system: SR leukemia
HOP-62 NSCLC = system: HOP-62 NSCLC

SMILES	GI50 (DLD-1 colon)	TGI (DLD-1 colon)	GI50 (MCF7 breast)	TGI (MCF7 breast)	GI50 (SF-295 CNS)	GI50 (SN12C renal)	GI50 (LOX IMVI melanoma)	TGI (LOX IMVI melanoma)	GI50 (SK-MEL-28 melanoma)	GI50 (HCT-15 colon)	TGI (HCT-15 colon)	GI50 (SR leukemia)	TGI (SR leukemia)	GI50 (HOP-62 NSCLC)	TGI (SF-295 CNS)	TGI (SN12C renal)	TGI (SK-MEL-28 melanoma)	TGI (HOP-62 NSCLC)
COC(C(=O)C(O)C(C)O)C1Cc2cc3cc(OC4CC(OC5CC(O)C(O)C(C)O5)C(O)C(C)O4)c(C)c(O)c3c(O)c2C(=O)C1OC1CC(OC2CC(O)C(OC3CC(C)(O)C(O)C(C)O3)C(C)O2)C(O)C(C)O1 (stereo not drawn)	0.0828 ng/mL	150 ng/mL	0.53 ng/mL	730 ng/mL	18.5 ng/mL and 0.389 ng/mL	11.2 ng/mL and 1.1 ng/mL	2.17 ng/mL	15000 ng/mL	11.2 ng/mL and 0.611 ng/mL	244 ng/mL and 2.99 ng/mL	2650 ng/mL and 1500 ng/mL	11.2 ng/mL and 1910 ng/mL	112000 ng/mL and > 150000 ng/mL	11.2 ng/mL and 0.0327 ng/mL				
C/C(=N\NC(=S)N1CCN(C2CCCCCC2)CC1)c1ccccn1	< 1 nM	1960 nM		2050 nM	3.02 nM	2020 nM	17.3 nM	5290 nM and 1830 nM	4080 nM	< 1 nM	3550 nM and 2100 nM		1060 nM	19.8 nM and < 15.6 nM	5670 nM and 2910 nM	2960 nM	2250 nM	1410 nM
NC(=O)c1ncn(CCN2CCN(C(=O)NCCCCCCNC(=O)N3CCN(CCn4cnc(C(N)=O)c4N)CC3)CC2)c1N		> 100000 nM						> 100000 nM			> 100000 nM		> 100000 nM		> 100000 nM	> 100000 nM	> 100000 nM	> 100000 nM
C=C1COC(O)(C2OCOC(C3CC(=O)NC(=O)C3)C2O)C1C (stereo not drawn)	10.9 nM	55.6 nM and 67.5 nM			2.49 nM		2.34 nM	5.53 nM and 21.7 nM	2.22 nM	3.63 nM and 12.7 nM			8.41 nM	2.77 nM	18 nM and 42.3 nM	12 nM	37.7 nM	35.7 nM and 38.2 nM
Cc1ccc(NC(=O)CC/C(CC(=O)C(C)(C)C)=N/NC(=O)C[N+](C)(C)C)cc1C		> 100000 nM						> 100000 nM			> 100000 nM		> 100000 nM		> 100000 nM	> 100000 nM	> 100000 nM	> 100000 nM
Cc1cc2nc3ccc(=[N+](C)C)cc-3sc2cc1N		23500 nM	326 nM and 405 nM	1870 nM and 6050 nM and 2790 nM	473 nM and 554 nM	821 nM and 1150 nM	270 nM and 301 nM	1370 nM and 8390 nM and 1400 nM	1640 nM and 1650 nM	384 nM and 630 nM	10900 nM and 18600 nM and 6980 nM	419 nM and 544 nM		1040 nM and 1550 nM	5270 nM and 14500 nM and 4830 nM	3700 nM and 10600 nM and 2520 nM	4650 nM and 27000 nM and 3560 nM	3200 nM and 28900 nM and 5720 nM
COC(=O)C1=CC2CC1C(S(=O)(=O)c1ccccc1)C2S(=O)(=O)c1ccccc1 (stereo not drawn)		29800 nM						27100 nM			26800 nM		11300 nM		53800 nM	28800 nM	30400 nM	> 100000 nM
